Laboratory results taken from US11155557B2, “Pyrazolopyrimidine compounds and methods of use thereof” (Genentech, Inc., priority 2016, dated 2021).
Where two headings read alike, the source gives them in different places.

Key:
[1] = test system: JAK1-dependent STAT6 phosphorylation in BEAS-2B human bronchial epithelial cells; test: JAK1 pathway assay: IL-13 stimulated STAT6 phosphorylation in BEAS-2B cells; type: cell-based; settings: BEAS-2B cells, IL-13 stimulation, read-out: IL-13 p-STAT6 BEAS-2B IC50
Protocol: JAK1 Pathway Assay in Cell Lines was Carried Out as Follows:
Inhibitor potency (EC50) was determined in cell-based assays designed to measure JAK1 dependent STAT phosphorylation.
In one assay approach, TF-1 human erythroleukemia cells obtained from the American Type Culture Collection (ATCC; Manassas, Va.) were used to measure JAK1-dependent STAT6 phosphorylation downstream of IL-13 stimulation. Prior to use in the assays, TF-1 cells were starved of GM-CSF overnight in OptiMEM medium (Life Technologies, Grand Island, N.Y.) supplemented with 0.5% charcoal/dextran stripped fetal bovine serum (FBS), 0.1 mM non-essential amino acids (NEAA), and 1 mM sodium pyruvate. The assays were run in 384-well plates in serum-free OptiMEM medium using 300,000 cells per well. In a second assay approach, BEAS-2B human bronchial epithelial cells obtained from ATCC were plated at 100,000 cells per well of a 96-well plate one day prior to the experiment. The BEAS-2B assay was run in complete growth medium (bronchial epithelial basal medium plus bulletkit; Lonza; Basel, Switzerland).
Test compounds were serially diluted 1:2 in DMSO and then diluted 1:50 in medium just before use. Diluted compounds were added to the cells, for a final DMSO concentration of 0.2%, and incubated for 30 min (for the TF-1 assay) or 1 hr (for the BEAS-2B assay) at 37° C. Then, cells were stimulated with human recombinant cytokine at their respective EC90 concentrations, as previously determined for each individual lot. Cells were stimulated with IL-13 (R&D Systems, Minneapolis, Minn.) for 15 min at 37° C. […] The resultant samples were frozen in the plates at −80° C. Compound mediated inhibition of STAT6 phosphorylation was measured in the cell lysates using MesoScale Discovery (MSD) technology (Gaithersburg, Md.).

[2] = target: isolated recombinant JAK1 kinase domain (Homo sapiens (Human), UniProt P23458); test: JAK1 enzyme assay (Caliper LabChip, Ki); type: biochemical
Protocol: The activity of the isolated recombinant JAK1 and JAK2 kinase domain was measured by monitoring phosphorylation of a peptide derived from JAK3 ([…] fluorescently labeled on the N-terminus with 5-carboxyfluorescein) using the Caliper LabChip R technology (Caliper Life Sciences, Hopkinton, Mass.).

[3] = target: isolated recombinant JAK2 kinase domain (Homo sapiens (Human), UniProt O60674); test: JAK2 enzyme assay (Caliper LabChip, Ki); settings: read-out: JAK2 Ki
isolated recombinant JAK2 kinase domain, sequence (O60674 849-1124): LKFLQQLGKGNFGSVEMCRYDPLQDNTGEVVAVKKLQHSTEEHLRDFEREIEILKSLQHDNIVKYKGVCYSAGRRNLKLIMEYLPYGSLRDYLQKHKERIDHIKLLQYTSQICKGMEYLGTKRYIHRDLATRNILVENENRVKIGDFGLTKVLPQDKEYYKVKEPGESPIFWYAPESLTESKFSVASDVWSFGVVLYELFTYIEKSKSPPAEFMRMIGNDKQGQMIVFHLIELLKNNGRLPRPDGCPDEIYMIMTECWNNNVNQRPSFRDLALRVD

isolated recombinant JAK1 kinase domain, sequence (P23458 875-1153): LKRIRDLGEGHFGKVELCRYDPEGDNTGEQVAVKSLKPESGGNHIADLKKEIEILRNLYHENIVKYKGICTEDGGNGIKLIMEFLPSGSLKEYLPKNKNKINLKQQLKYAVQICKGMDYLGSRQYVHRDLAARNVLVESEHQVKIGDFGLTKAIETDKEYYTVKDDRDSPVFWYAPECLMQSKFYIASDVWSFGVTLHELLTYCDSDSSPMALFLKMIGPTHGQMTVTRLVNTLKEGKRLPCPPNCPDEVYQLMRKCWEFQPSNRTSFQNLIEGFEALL

SMILES	Ki [2] [nM]	Ki [3] [nM]	IC50 ([1]; Homo sapiens, BEAS-2B) [nM]	IC50 [1] [nM]
O=C(Nc1cn(C2CCCNC2)nc1-c1cc2ccccc2cc1OC(F)F)c1cnn2cccnc12 (racemic) [Example 5, N-(3-(3-(difluoromethoxy)naphthalen-2-yl)-1-(piperidin-3-yl)-1H-pyrazol-4-yl)pyrazolo[1,5-a]pyrimidine-3-carboxamide]	1.21	0.78	31	–
O=C(Nc1c[nH]nc1-c1cc2c(cc1OC(F)F)CC(CO)O2)c1cnn2cccnc12 (racemic) [Example 15, N-(3-(5-(difluoromethoxy)-2-(hydroxymethyl)-2,3-dihydrobenzofuran-6-yl)-1H-pyrazol-4-yl)pyrazolo[1,5-a]pyrimidine-3-carboxamide]	0.69	0.24	143	–
NCC1CNc2cc(OC(F)F)c(-c3n[nH]cc3NC(=O)c3cnn4cccnc34)cc2S1 (racemic) [Example 38, N-[3-[2-(aminomethyl)-6-(difluoromethoxy)-3,4-dihydro-2H-1,4-benzothiazin-7-yl]-1H-pyrazol-4-yl]pyrazolo[1,5-a]pyrimidine-3-carboxamide]	0.33	0.29	> 1000	–
CN1CCCC(n2cc(NC(=O)c3cnn4cccnc34)c(-c3cc4cn[nH]c4cc3OC(F)F)n2)C1 (racemic) [Example 74, N-[3-[6-(difluoromethoxy)-1H-indazol-5-yl]-1-(1-methyl-3-piperidyl)pyrazol-4-yl]pyrazolo[1,5-a]pyrimidine-3-carboxamide]	1.63	0.98	18	–
CN1CCCC1Cn1cc(NC(=O)c2cnn3cccnc23)c(-c2cc3cn[nH]c3cc2OC(F)F)n1 (racemic) [Example 75, N-[3-[6-(difluoromethoxy)-1H-indazol-5-yl]-1-[(1-methylpyrrolidin-2-yl)methyl]pyrazol-4-yl]pyrazolo[1,5-a]pyrimidine-3-carboxamide]	0.31	0.26	11	–
CC1CNc2cc(OC(F)F)c(-c3nn(CC(=O)N4CCCCC4)cc3NC(=O)c3cnn4cccnc34)cc2S1 (single isomer, unassigned) [Example 101, N-[3-[6-(difluoromethoxy)-2-methyl-3,4-dihydro-2H-1,4-benzothiazin-7-yl]-1-[2-oxo-2-(1-piperidyl)ethyl]pyrazol-4-yl]pyrazolo[1,5-a]pyrimidine-3-carboxamide]	0.23	0.16	13	–
CC1CNc2cc(OC(F)F)c(-c3nn(CC(=O)N4CCCCC4)cc3NC(=O)c3cnn4cccnc34)cc2S1 (single isomer, unassigned) [Example 102, N-[3-[6-(difluoromethoxy)-2-methyl-3,4-dihydro-2H-1,4-benzothiazin-7-yl]-1-[2-oxo-2-(1-piperidyl)ethyl]pyrazol-4-yl]pyrazolo[1,5-a]pyrimidine-3-carboxamide]	0.2	0.19	–	12
CC1CNc2cc(OC(F)F)c(-c3nn(CC(=O)N4CC=CCC4)cc3NC(=O)c3cnn4cccnc34)cc2S1 (single isomer, unassigned) [Example 103, N-[3-[6-(difluoromethoxy)-2-methyl-3,4-dihydro-2H-1,4-benzothiazin-7-yl]-1-[2-(3,6-dihydro-2H-pyridin-1-yl)-2-oxo-ethyl]pyrazol-4-yl]pyrazolo[1,5-a]pyrimidine-3-carboxamide]	0.2	0.14	12	–
CC1CNc2cc(OC(F)F)c(-c3nn(CC(=O)N(C)C)cc3NC(=O)c3cnn4cccnc34)cc2S1 (single isomer, unassigned) [Example 105, N-[3-[6-(difluoromethoxy)-2-methyl-3,4-dihydro-2H-1,4-benzothiazin-7-yl]-1-[2-(dimethylamino)-2-oxo-ethyl]pyrazol-4-yl]pyrazolo[1,5-a]pyrimidine-3-carboxamide]	0.19	0.13	24	–
O=C(O)Cn1cc(NC(=O)c2cnn3cccnc23)c(-c2cc3ccccc3cc2OC(F)F)n1 [Example 2, 2-(3-(3-(difluoromethoxy)naphthalen-2-yl)-4-(pyrazolo[1,5-a]pyrimidine-3-carboxamido)-1H-pyrazol-1-yl)acetic acid]	0.64	–	128	–
CC(C)(C)OC(=O)N1CCC(C(=O)Cn2ncc3cc(-c4n[nH]cc4NC(=O)c4cnn5cccnc45)c(OC(F)F)cc32)CC1 [Example 18, tert-butyl 4-(2-(6-(difluoromethoxy)-5-(4-(pyrazolo[1,5-a]pyrimidine-3-carboxamido)-1H-pyrazol-3-yl)-1H-indazol-1-yl)acetyl)piperidine-1-carboxylate]	8.02	2.59	–	–
COc1cc2sc(C(N)=O)cc2cc1-c1n[nH]cc1NC(=O)c1cnn2cccnc12 [Example 23, N-(3-(2-carbamoyl-6-methoxybenzo[b]thiophen-5-yl)-1H-pyrazol-4-yl)pyrazolo[1,5-a]pyrimidine-3-carboxamide]	9.27	6.01	–	–

Compounds with a lower Ki [2], results first:

Ki [2] [nM]	Ki [3] [nM]	SMILES	IC50 ([1]; Homo sapiens, BEAS-2B) [nM]	IC50 [1] [nM]
0.08	0.06	CC1CSc2cc(-c3n[nH]cc3NC(=O)c3cnn4cccnc34)c(OC(F)F)cc2N1 (racemic) [Example 41, N-[3-[6-(difluoromethoxy)-3-methyl-3,4-dihydro-2H-1,4-benzothiazin-7-yl]-1H-pyrazol-4-yl]pyrazolo[1,5-a]pyrimidine-3-carboxamide]	4	–
0.16	0.17	CC1CNc2cc(OC(F)F)c(-c3nn(CCN)cc3NC(=O)c3cnn4cccnc34)cc2S1 (racemic) [Example 80, N-[1-(2-aminoethyl)-3-[6-(difluoromethoxy)-2-methyl-3,4-dihydro-2H-1,4-benzothiazin-7-yl]pyrazol-4-yl]pyrazolo[1,5-a]pyrimidine-3-carboxamide]	13	–
0.07	0.03	CC1CNc2cc(OC(F)F)c(-c3n[nH]cc3NC(=O)c3cnn4cccnc34)cc2S1 (single isomer, unassigned) [Example 93, N-[3-[6-(difluoromethoxy)-2-methyl-3,4-dihydro-2H-1,4-benzothiazin-7-yl]-1H-pyrazol-4-yl]pyrazolo[1,5-a]pyrimidine-3-carboxamide]	6	–
0.06	0.03	CC1Sc2cc(-c3n[nH]cc3NC(=O)c3cnn4cccnc34)c(OC(F)F)cc2NC1=O (single isomer, unassigned) [Example 95, N-[3-[6-(difluoromethoxy)-2-methyl-3-oxo-4H-1,4-benzothiazin-7-yl]-1H-pyrazol-4-yl]pyrazolo[1,5-a]pyrimidine-3-carboxamide]	60	–
0.07	0.05	CC1Sc2cc(-c3n[nH]cc3NC(=O)c3cnn4cccnc34)c(OC(F)F)cc2NC1=O (single isomer, unassigned) [Example 96, N-[3-[6-(difluoromethoxy)-2-methyl-3-oxo-4H-1,4-benzothiazin-7-yl]-1H-pyrazol-4-yl]pyrazolo[1,5-a]pyrimidine-3-carboxamide]	–	70
0.13	0.09	CC1Sc2cc(-c3nn(C)cc3NC(=O)c3cnn4cccnc34)c(OC(F)F)cc2NC1=O (single isomer, unassigned) [Example 97, N-[3-[6-(difluoromethoxy)-2-methyl-3-oxo-4H-1,4-benzothiazin-7-yl]-1-methyl-pyrazol-4-yl]pyrazolo[1,5-a]pyrimidine-3-carboxamide]	7	–
0.11	0.07	CC1Sc2cc(-c3nn(C)cc3NC(=O)c3cnn4cccnc34)c(OC(F)F)cc2NC1=O (single isomer, unassigned) [Example 98, N-[3-[6-(difluoromethoxy)-2-methyl-3-oxo-4H-1,4-benzothiazin-7-yl]-1-methyl-pyrazol-4-yl]pyrazolo[1,5-a]pyrimidine-3-carboxamide]	–	6
0.15	0.16	CC1CNc2cc(OC(F)F)c(-c3nn(CC(=O)N4CC=CCC4)cc3NC(=O)c3cnn4cccnc34)cc2S1 (single isomer, unassigned) [Example 104, N-[3-[6-(difluoromethoxy)-2-methyl-3,4-dihydro-2H-1,4-benzothiazin-7-yl]-1-[2-(3,6-dihydro-2H-pyridin-1-yl)-2-oxo-ethyl]pyrazol-4-yl]pyrazolo[1,5-a]pyrimidine-3-carboxamide]	–	11
